“Also recorded” adds a separate entry of the source.

A short description of series [1]: First-in-human study, pharmacokinetics in healthy volunteers (plasma concentration; SAD, MAD, food effect). Type of series: in vivo. The conditions noted are these: for increase of exposure (plasma concentration) with dose: healthy volunteers. How it is done:
(§1) A first-in-human (FIH) study was conducted to assess the safety and tolerability, pharmacokinetics (PK) and pharmacodynamics (PD) of single and multiple doses of compound of Formula (I) as twice daily (bid) oral administration in healthy volunteers, to support further clinical development of compound of Formula (I) in autoimmune diseases. This study also explored the effect of food intake.
(§2) First-in-human study in healthy volunteers (HVs) included the following: • Part A was a randomized, subject-blinded, placebo-controlled, single ascending dose (SAD) study with 10 cohorts. Each cohort received in an ascending order a 1 mg, 3 mg, 10 mg, 20 mg, 40 mg, 80 mg, 160 mg, 320 mg, 640 mg or 1000 mg single dose of compound of Formula (I). • Part B was a randomized, subject-blinded, placebo-controlled, multiple ascending dose (MAD) study with 5 cohorts. Each cohort received in an ascending order a 25 mg, 50 mg, 100 mg, 200 mg or 400 mg dose of compound of Formula (I) b.i.d. for 14 days. • Part C was a randomized, open-label, two-sequence, two-period crossover study with a 200 mg dose of compound of Formula (I) administered each underfed or fasted condition, for the food effect evaluation.

Series [2] has as its target T1, TLR7 (Homo sapiens, UniProt Q9NYK1).
T1 construct: endogenous in cells; host or cells: B cells in whole blood of healthy human subjects (SAD and MAD cohorts)
T1 sequence (Q9NYK1 27-1049): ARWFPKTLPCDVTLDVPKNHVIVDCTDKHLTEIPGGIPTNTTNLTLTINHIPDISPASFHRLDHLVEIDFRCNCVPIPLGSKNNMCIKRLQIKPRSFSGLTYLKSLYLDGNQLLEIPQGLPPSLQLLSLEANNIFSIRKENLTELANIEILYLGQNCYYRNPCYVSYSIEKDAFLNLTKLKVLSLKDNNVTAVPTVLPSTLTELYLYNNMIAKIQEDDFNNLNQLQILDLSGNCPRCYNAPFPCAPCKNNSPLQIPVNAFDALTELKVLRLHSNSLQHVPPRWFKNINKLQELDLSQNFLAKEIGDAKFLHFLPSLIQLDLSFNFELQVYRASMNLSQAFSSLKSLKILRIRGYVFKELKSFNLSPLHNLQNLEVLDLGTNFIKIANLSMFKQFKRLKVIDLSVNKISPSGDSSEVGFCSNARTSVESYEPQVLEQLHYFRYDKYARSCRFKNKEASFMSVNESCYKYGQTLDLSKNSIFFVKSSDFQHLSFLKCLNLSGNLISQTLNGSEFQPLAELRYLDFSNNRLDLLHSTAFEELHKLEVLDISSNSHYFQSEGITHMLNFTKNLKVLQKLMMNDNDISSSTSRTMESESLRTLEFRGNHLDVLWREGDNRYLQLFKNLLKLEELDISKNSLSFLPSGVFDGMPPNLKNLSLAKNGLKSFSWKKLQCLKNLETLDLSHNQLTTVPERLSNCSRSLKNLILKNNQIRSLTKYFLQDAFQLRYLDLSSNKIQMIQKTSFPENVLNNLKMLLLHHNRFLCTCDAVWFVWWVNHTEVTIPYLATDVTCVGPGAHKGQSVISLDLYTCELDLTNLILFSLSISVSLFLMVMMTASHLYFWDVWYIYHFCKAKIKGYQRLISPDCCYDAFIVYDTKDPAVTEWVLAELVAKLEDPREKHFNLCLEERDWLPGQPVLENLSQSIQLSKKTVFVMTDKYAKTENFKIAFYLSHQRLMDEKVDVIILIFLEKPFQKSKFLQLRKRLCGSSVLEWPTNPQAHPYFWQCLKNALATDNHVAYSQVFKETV
The series is described as follows: Ex-vivo stimulation of whole blood from SAD and MAD cohorts with a TLR7/8 agonist, B cell activation (CD69). Format: cell-based. From the text: (§3) CD69 and TNF are biomarkers intended to inform the pharmacodynamic (PD) effect of compound of Formula (I). Whole blood samples from the SAD and MAD cohorts were ex-vivo stimulated with a TLR7/8 agonist to increase levels of CD69 and TNF.

The subject of series [3] is TLR7 and TLR8. The series is described as follows: Selectivity for TLR7 and TLR8 over other TLRs and the IL-1 receptor on human PBMCs. Type of series: cell-based.
Series [4] can be described thus: First-in-human study, safety and tolerability in healthy volunteers. Type of series: in vivo. The conditions noted are these: healthy subjects. The protocol: as §1, §2
Series [5] deals with T2, TLR8 (Homo sapiens, UniProt Q9NR97).
T2 construct: endogenous in cells; host or cells: monocytes in whole blood of healthy human subjects (SAD and MAD cohorts)
T2 sequence (Q9NR97 27-1041): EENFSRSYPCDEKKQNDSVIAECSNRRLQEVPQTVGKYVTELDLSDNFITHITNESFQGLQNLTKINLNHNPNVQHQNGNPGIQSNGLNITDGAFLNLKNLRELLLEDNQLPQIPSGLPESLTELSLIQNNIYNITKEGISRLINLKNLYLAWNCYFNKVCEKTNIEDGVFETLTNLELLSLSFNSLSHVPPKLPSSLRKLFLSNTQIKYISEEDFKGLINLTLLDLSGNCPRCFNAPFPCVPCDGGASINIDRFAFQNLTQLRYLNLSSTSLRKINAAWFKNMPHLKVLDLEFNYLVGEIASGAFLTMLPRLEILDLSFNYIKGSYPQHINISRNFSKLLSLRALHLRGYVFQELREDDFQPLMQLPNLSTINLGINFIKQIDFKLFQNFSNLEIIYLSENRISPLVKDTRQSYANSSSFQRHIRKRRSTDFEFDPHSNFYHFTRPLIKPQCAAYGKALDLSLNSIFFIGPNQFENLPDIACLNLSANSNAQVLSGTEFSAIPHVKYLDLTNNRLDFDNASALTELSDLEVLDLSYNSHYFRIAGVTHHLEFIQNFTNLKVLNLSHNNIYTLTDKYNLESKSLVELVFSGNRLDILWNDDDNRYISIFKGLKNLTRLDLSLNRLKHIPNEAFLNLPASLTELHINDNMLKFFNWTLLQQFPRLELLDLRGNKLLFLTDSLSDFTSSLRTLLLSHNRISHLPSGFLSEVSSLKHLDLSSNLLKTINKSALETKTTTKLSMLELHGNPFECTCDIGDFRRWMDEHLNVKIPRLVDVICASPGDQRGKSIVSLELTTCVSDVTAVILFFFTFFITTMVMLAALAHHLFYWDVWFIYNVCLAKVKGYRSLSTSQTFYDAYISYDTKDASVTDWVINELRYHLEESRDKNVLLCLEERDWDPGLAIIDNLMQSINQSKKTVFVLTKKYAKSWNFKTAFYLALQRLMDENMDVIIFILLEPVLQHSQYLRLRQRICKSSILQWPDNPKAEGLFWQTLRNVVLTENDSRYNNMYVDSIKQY
The series is described as follows: Ex-vivo stimulation of whole blood from SAD and MAD cohorts with a TLR7/8 agonist, monocyte TNF production. Format: cell-based.
Excerpt: as §3

[6] abbreviates: 200 mg b.i.d. for 14 days, FIH study.
The mark [7] stands for this setting: ex-vivo stimulated whole blood, across the dose range (SAD and MAD).

Regarding `Cc1cc(N2CCc3c(c(C)nn3CC34CCC(NC(=O)[C@@H]5COCCN5)(CC3)CC4)C2)c2cnn(C)c2n1` [compound of Formula (I), (S)-N-(4-((5-(1,6-dimethyl-1H-pyrazolo[3,4-b]pyridin-4-yl)-3-methyl-4,5,6,7-tetrahydro-1H-pyrazolo[4,3-c]pyridin-1-yl)methyl)bicyclo[2.2.2]octan-1-yl)morpholine-3-carboxamide], in series [1] (200 mg dose, fed condition, FIG. 3), the “Cmax timing under fed condition” value is “slightly delayed Cmax”. The “food effect on exposure” value in series [1] (200 mg dose, fed vs fasted crossover, FIG. 3) is “No relevant food effect”. For the same molecule, the “increase of exposure (plasma concentration) with dose” value in series [1] (multiple ascending dose b.i.d. for 14 days, FIG. 2) is given as “dose-proportional at steady state for the lower doses”; in series [1] (single ascending dose, oral, FIG. 1), “dose-proportional for the higher doses”. Also, the half-life in series [1] (plasma, oral, human, FIH study, maximum value, read-out: terminal half-life) is at most 14.4 h. The TLR7 pathway inhibition entry in series [2] (setting [6]) is on record as “full pathway inhibition”. Also, in series [2] (setting [7]), the “B cell activation (upregulation of CD69) following TLR7 stimulation” value is “inhibited B cell activation”. Further, the “selectivity for TLR7 and TLR8 over other TLRs and the IL-1 receptor” value in series [3] is given as “highly selective”. Further, the safety and tolerability result in series [4] (multiple administrations of up to 400 mg b.i.d. for 14 days) is “safe and well tolerated; also recorded: safe and well-tolerated”; in series [4] (single oral administration of up to 1000 mg), “safe and well tolerated; also recorded: safe and well-tolerated”. Also, the TLR8 pathway inhibition entry in series [5] (setting [6]) is listed as “full pathway inhibition”. In series [5] (setting [7]), the “activation of human monocytes to produce TNF following TLR8 stimulation” value is on record as “inhibited activation of human monocytes to produce TNF”.

Usually half-life stands for how long it takes for the measured level to halve.
